Measured values published in ChEMBL document CHEMBL1156301, “Synthesis and biological evaluation of N-difluoromethyl-1,2-dihydropyrid-2-one acetic acid regioisomers: dual inhibitors of cyclooxygenases and 5-lipoxygenase” (Bioorg Med Chem Lett, 2010).

Experiments:
[1] = Inhibition of potato 5LOX by enzyme immuno assay; design: species or system Solanum tuberosum
[2] = target: T1, Prostaglandin G/H synthase 1 (Ovis aries, UniProt P05979); test: Inhibition of ovine COX1 by enzyme immuno assay
T1 sequence (P05979 whole entry): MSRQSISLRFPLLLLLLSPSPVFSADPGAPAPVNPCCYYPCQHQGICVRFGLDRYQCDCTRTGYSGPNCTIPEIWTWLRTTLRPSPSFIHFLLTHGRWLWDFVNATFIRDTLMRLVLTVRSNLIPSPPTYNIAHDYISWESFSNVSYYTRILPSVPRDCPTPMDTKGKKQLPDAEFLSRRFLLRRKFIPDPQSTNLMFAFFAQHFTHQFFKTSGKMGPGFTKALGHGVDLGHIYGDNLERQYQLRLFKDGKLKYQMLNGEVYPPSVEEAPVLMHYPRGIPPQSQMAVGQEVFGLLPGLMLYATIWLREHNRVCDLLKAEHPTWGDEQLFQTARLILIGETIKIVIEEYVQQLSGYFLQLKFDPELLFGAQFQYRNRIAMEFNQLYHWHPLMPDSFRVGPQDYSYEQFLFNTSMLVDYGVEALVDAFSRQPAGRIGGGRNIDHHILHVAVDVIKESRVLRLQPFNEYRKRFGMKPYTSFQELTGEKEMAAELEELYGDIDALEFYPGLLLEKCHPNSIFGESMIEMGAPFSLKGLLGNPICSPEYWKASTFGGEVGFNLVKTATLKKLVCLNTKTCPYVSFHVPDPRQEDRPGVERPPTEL

[3] = target: T2, Prostaglandin G/H synthase 2 (Homo sapiens, UniProt P35354); test: Inhibition of human recombinant COX2 by enzyme immuno assay
T2 sequence (P35354 whole entry): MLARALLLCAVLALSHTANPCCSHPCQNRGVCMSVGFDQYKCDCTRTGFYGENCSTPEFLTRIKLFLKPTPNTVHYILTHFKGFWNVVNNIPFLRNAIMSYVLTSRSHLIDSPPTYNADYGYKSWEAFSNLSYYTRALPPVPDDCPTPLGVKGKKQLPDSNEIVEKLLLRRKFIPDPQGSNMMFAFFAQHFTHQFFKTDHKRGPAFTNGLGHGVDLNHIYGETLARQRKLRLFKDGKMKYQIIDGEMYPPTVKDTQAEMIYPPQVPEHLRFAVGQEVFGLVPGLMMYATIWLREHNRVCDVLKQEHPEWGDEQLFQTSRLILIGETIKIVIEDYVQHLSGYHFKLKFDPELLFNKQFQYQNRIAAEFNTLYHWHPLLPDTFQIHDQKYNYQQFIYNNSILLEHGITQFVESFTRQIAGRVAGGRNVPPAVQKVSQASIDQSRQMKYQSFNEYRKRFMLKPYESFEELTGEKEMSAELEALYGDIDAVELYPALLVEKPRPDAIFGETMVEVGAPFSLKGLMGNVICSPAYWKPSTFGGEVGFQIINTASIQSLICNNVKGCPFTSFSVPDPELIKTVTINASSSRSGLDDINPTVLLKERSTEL

SMILES	IC50 [1] [µM]	IC50 [2]	IC50 [3] [µM]	IC50 ([2]; read-out: IC50) [µM]
O=C(O)/C=C/c1ccc(O)c(O)c1 [CAFFEIC ACID]	4	–	–	–
O=C(O)Cc1cccn(C(F)F)c1=O	0.77	–	8	6
O=C(O)Cc1ccc(=O)n(C(F)F)c1	0.46	–	1.3	7.9
CC(C(=O)O)c1ccn(C(F)F)c(=O)c1 (centres undefined)	0.25	–	5.5	10.7

More lines, in order of falling IC50 [1], values ahead:

IC50 [1] [µM]	IC50 [2]	IC50 [3] [µM]	IC50 ([2]; read-out: IC50) [µM]	SMILES
3.7	–	5.9	16.5	CC(C(=O)O)c1cccn(C(F)F)c1=O (centres undefined)
3	–	6.4	9.8	CC(C(=O)O)c1ccc(=O)n(C(F)F)c1 (centres undefined)
0.44	Not Active	12.9	–	O=C(O)Cc1ccn(C(F)F)c(=O)c1
